These results are taken from patent publication US8883771B2, “Bivalent inhibitors of IAP proteins and therapeutic methods using the same” (The Regents of the University of Michigan, priority 2012, dated 2014).

For test [1], the system named is MDA-MB-231 breast cancer cell line. Put plainly: Inhibition of cell growth in MDA-MB-231 breast cancer cell line. The format is cell-based, human.
Test [2] relates to SK-OV-3 ovarian cancer cell line. In words: Inhibition of cell growth in SK-OV-3 ovarian cancer cell line. The format is cell-based, human.
For test [3], the target named is XIAP linker-BIR2-BIR3 (residues 120-356) (Homo sapiens (Human), UniProt P98170). Put plainly: Fluorescence polarization (FP) based competitive binding assay, XIAP linker-BIR2-BIR3. The settings on record: read-out: Binding Affinities IC50 (nM) XIAP Protein. Here is the method:
(§1) For cIAP-1 BIR3 and cIAP-2 BIR3 assays, a fluorescently labeled Smac mimetic (Smac-2F) was used as the fluorescent probe. The Kd values of Smac-2F to cIAP-1 BIR3 and cIAP-2 BIR3 were determined by monitoring the total fluorescence polarization of mixtures composed with the fluorescent probe at a fixed concentration and proteins with increasing concentrations up to full saturation. Fluorescence polarization values were measured using the Infinite M-1000 plate reader (Tecan U.S., Research Triangle Park, N.C.) in Microfluor 2 96-well, black, round-bottom plates (Thermo Scientific). To each well, 1 nM of SMAC-2F and increasing concentrations of protein were added to a final volume of 125 μl in the assay buffer (100 mM potassium phosphate, pH 7.5, 100 μg/ml bovine γ-globulin, 0.02% sodium azide, Invitrogen, with 4% DMSO). Plates were incubated at room temperature for 1-2 hours and mixed with gentle shaking to assure equilibrium. […] Equilibrium dissociation constants (Kd) were then calculated by fitting the sigmoidal dose-dependent FP increases as a function of protein concentrations using Graphpad Prism 5.0 software (Graphpad Software, San Diego, Calif.).
(§2) Mixtures of 5 μl of the tested compounds in DMSO and 120 μl of preincubated protein/tracer complex in the assay buffer (100 mM potassium phosphate, pH 7.5, 100 μg/ml bovine γ-globulin, 0.02% sodium azide, Invitrogen) were added into assay plates and incubated at room temperature for 2 hours with gentle shaking. Final concentrations of proteins and probes were 3 nM and 1 nM, 5 nM and 1 nM for assays for cIAP-1 BIR3 and cIAP-2 BIR3, respectively. […] FP values were measured as described above. IC50 values were determined by nonlinear regression fitting of the competition curves. The Ki values of competitive inhibitors were calculated using the derived equation described previously, based upon the measured IC50 values, the Kd values of the probe to different proteins, and the concentrations of the proteins and probes in the competitive assays.
The FP-based assay for XIAP linker-BIR2-BIR3 protein was performed with the same procedures. In this assay, a bivalent fluorescently tagged peptidic Smac mimetic (Smac-1F) was used as the fluorescent probe whose Kd value to XIAP linker-BIR2-BIR3 was determined similarly through the saturation experiments. 0.01% of Triton X-100 was added in the assay buffer to achieve stable fluorescence and polarization value of the dimeric fluorescent probe. Final protein and probe concentrations utilized in the competitive assay were 3 nM and 1 nM, respectively.

The target in test [4] is cIAP1-BIR3 (residues 253-363) (Homo sapiens (Human), UniProt Q13490). In words: Fluorescence polarization (FP) based competitive binding assay, cIAP1-BIR3. The settings on record: Smac-2F probe, read-out: Binding Affinities IC50 (nM) cIAP1 Protein. Here is the method: as §1, §2
For orientation: In fluorescence polarisation assays a small probe gives low polarisation when free and higher when bound to something large.

In test [5] the target is cIAP-2 BIR3 (residues 238-349) (Homo sapiens (Human), UniProt Q13489). In words: Fluorescence polarization (FP) based competitive binding assay, cIAP-2 BIR3. Conditions: read-out: Binding Affinities IC50 (nM) cIAP2 Protein. Here is the method: as §1, §2
Where [6] appears, read: MDA-MB-231 breast cancer cell line.
Setting [7] is: SK-OV-3 ovarian cancer cell line.
Setting [8] is: Homo sapiens, MDA-MB-231, MDA-MB-231 breast cancer cell line.
[9] abbreviates: Homo sapiens, SK-OV-3, SK-OV-3 ovarian cancer cell line.
Setting [10] is: Homo sapiens, MDA-MB-231 breast cancer cell line.
The mark [11] stands for this setting: Homo sapiens, SK-OV-3 ovarian cancer cell line.

Each structure is given as a SMILES string. Read-outs that look alike come from different tables or passages of the source.

As a reminder, the IC50 is the concentration at which inhibition is half-maximal. With `CN[C@@H](C)C(=O)N[C@H]1CN(C(=O)Nc2ccc(NC(=O)N3CC[C@H]4CC[C@@H](C(=O)N[C@@H]5C[C@@H]5c5ccccc5)N4C(=O)[C@@H](NC(=O)[C@H](C)NC)C3)cc2)CC[C@H]2CC[C@@H](C(=O)N[C@@H]3C[C@@H]3c3ccccc3)N2C1=O` (stereo in doubt) [Example 26], the half-inhibitory concentration (IC50) in test [1] (setting [6]) and in test [2] (setting [7]) was less than 1000 nM each time. Consider `CN[C@@H](C)C(=O)N[C@H]1CN(C(=O)Nc2ccc(-c3ccc(NC(=O)N4CC[C@H]5CC[C@@H](C(=O)NC(c6ccccc6)c6ccccc6)N5C(=O)[C@@H](NC(=O)[C@H](C)NC)C4)c(C)c3)cc2C)CC[C@H]2CCC(C(=O)NC(c3ccccc3)c3ccccc3)N2C1=O` (some centres unmarked) [Example 15], for which the IC50 in test [1] (setting [8]) and in test [2] (setting [9]) was less than 1000 nM in each case. On to `CN[C@@H](C)C(=O)N[C@H]1CN(C(=S)Nc2ccc(NC(=S)N3CC[C@H]4CC[C@@H](C(=O)NC(c5ccccc5)c5ccccc5)N4C(=O)[C@@H](NC(=O)[C@H](C)NC)C3)cc2)CC[C@H]2CCC(C(=O)NC(c3ccccc3)c3ccccc3)N2C1=O` (some centres unmarked) [Example 16], for which the 50% inhibitory concentration (IC50) in test [1] (setting [8]) is less than 100 nM. Still for that read-out and setting: next, `CN[C@@H](C)C(=O)N[C@H]1CN(C(=O)Nc2ccc(CCc3ccc(NC(=O)N4CC[C@H]5CC[C@@H](C(=O)NC(c6ccccc6)c6ccccc6)N5C(=O)[C@@H](NC(=O)[C@H](C)NC)C4)cc3)cc2)CC[C@H]2CCC(C(=O)NC(c3ccccc3)c3ccccc3)N2C1=O` (some centres unmarked) [Example 17]: less than 100 nM. `CN[C@@H](C)C(=O)N[C@H]1CN(C(=S)Nc2ccc(Cc3ccc(NC(=S)N4CC[C@H]5CC[C@@H](C(=O)NC(c6ccccc6)c6ccccc6)N5C(=O)[C@@H](NC(=O)[C@H](C)NC)C4)cc3)cc2)CC[C@H]2CCC(C(=O)NC(c3ccccc3)c3ccccc3)N2C1=O` (some centres unmarked) [Example 18] displayed an IC50 in test [1] (setting [8]) of less than 100 nM. With `CNCC(=O)N[C@H]1CN(C(=O)N2CCN(C(=O)N3CC[C@H]4CC[C@@H](C(=O)NC(c5ccccc5)c5ccccc5)N4C(=O)[C@@H](NC(=O)[C@H](C)NC)C3)CC2)CC[C@H]2CCC(C(=O)NC(c3ccccc3)c3ccccc3)N2C1=O` (some centres unmarked) [Example 20], the 50% inhibitory concentration (IC50) in test [1] (setting [8]) and in test [2] (setting [9]) was less than 10000 nM in each case. On to `CN[C@@H](C)C(=O)N[C@H]1CN(C(=O)Oc2ccc(C(C)(C)c3ccc(OC(=O)N4CC[C@H]5CC[C@@H](C(=O)NC(c6ccccc6)c6ccccc6)N5C(=O)[C@@H](NC(=O)[C@H](C)NC)C4)cc3)cc2)CC[C@H]2CCC(C(=O)NC(c3ccccc3)c3ccccc3)N2C1=O` (some centres unmarked) [Example 22], for which the IC50 in test [1] (setting [8]) is less than 100 nM; in test [2] (setting [9]), less than 1000 nM. For `CN[C@@H](C)C(=O)N[C@H]1CN(S(=O)(=O)c2cccc(S(=O)(=O)N3CC[C@H]4CC[C@@H](C(=O)NC(c5ccccc5)c5ccccc5)N4C(=O)[C@@H](NC(=O)[C@H](C)NC)C3)c2)CC[C@H]2CCC(C(=O)NC(c3ccccc3)c3ccccc3)N2C1=O` (some centres unmarked) [Example 23] the same measures were less than 100 nM and less than 100 nM. For `CN[C@@H](C)C(=O)N[C@H]1CN(C(=O)Nc2ccc(NC(=O)N3CC[C@H]4CC[C@@H](C(=O)N[C@@H]5C[C@@H]5c5ccccc5)N4C(=O)[C@@H](NC(=O)[C@H](C)NC)C3)cc2)CC[C@H]2CC[C@@H](C(=O)N[C@@H]3C[C@@H]3c3ccccc3)N2C1=O` [Example 25] the same measures were less than 1000 nM and less than 1000 nM. On to `CN[C@@H](C)C(=O)N[C@H]1CN(C(=O)Nc2ccc(NC(=O)N3CC[C@H]4CC[C@@H](C(=O)N[C@H]5C[C@@H]5c5ccccc5F)N4C(=O)[C@@H](NC(=O)[C@H](C)NC)C3)cc2)CC[C@H]2CC[C@@H](C(=O)N[C@H]3C[C@@H]3c3ccccc3F)N2C1=O` [Example 27], for which the half-maximal inhibitory concentration (IC50) in test [1] (setting [8]) and in test [2] (setting [9]) was less than 5000 nM in each case. Consider `CN[C@@H](C)C(=O)N[C@H]1CN(C(=O)Nc2ccc(NC(=O)N3CC[C@H]4CC[C@@H](C(=O)N[C@@H]5C[C@H]5c5ccccc5)N4C(=O)[C@@H](NC(=O)[C@H](C)NC)C3)cc2)CC[C@H]2CC[C@@H](C(=O)N[C@@H]3C[C@H]3c3ccccc3)N2C1=O` [Example 30], for which the IC50 in test [1] (setting [8]) and in test [2] (setting [9]) was less than 10000 nM in each case. In the case of `CN[C@@H](C)C(=O)N[C@H]1CN(C(=O)Nc2ccc(NC(=O)N3CC[C@H]4CC[C@@H](C(=O)N[C@H]5C[C@@H]5c5ccccc5)N4C(=O)[C@@H](NC(=O)[C@H](C)NC)C3)cc2)CC[C@H]2CC[C@@H](C(=O)N[C@H]3C[C@@H]3c3ccccc3)N2C1=O` [Example 31], the IC50 in test [1] (setting [8]) and in test [2] (setting [9]) was less than 1000 nM throughout. Take `CN[C@@H](C)C(=O)N[C@H]1CN(C(=O)Nc2ccc(NC(=O)N3CC[C@H]4CC[C@@H](C(=O)N[C@H]5C[C@@H]5c5ccc(C(F)(F)F)cc5)N4C(=O)[C@@H](NC(=O)[C@H](C)NC)C3)cc2)CC[C@H]2CC[C@@H](C(=O)N[C@H]3C[C@@H]3c3ccc(C(F)(F)F)cc3)N2C1=O` [Example 35]: the IC50 in test [1] (setting [8]) and in test [2] (setting [9]) was less than 10000 nM in each case. With `CN[C@@H](C)C(=O)N[C@H]1CN(C(=O)NCc2cccc(CNC(=O)N3CC[C@H]4CC[C@@H](C(=O)N[C@H]5C[C@@H]5c5ccccc5)N4C(=O)[C@@H](NC(=O)[C@H](C)NC)C3)c2)CC[C@H]2CCC(C(=O)N[C@H]3C[C@@H]3c3ccccc3)N2C1=O` (some centres unmarked) [Example 38], the concentration for half-maximal inhibition (IC50) in test [1] (setting [8]) and in test [2] (setting [9]) was less than 10000 nM each time. As to `CN[C@@H](C)C(=O)N[C@H]1CN(C(=O)NCCCCCCNC(=O)N2CC[C@H]3CC[C@@H](C(=O)N[C@H]4CCCC[C@@H]4c4ccccc4)N3C(=O)[C@@H](NC(=O)[C@H](C)NC)C2)CC[C@H]2CCC(C(=O)N[C@H]3CCCC[C@@H]3c3ccccc3)N2C1=O` (some centres unmarked) [Example 39], the concentration for half-maximal inhibition (IC50) in test [1] (setting [6]) and in test [2] (setting [7]) was less than 1000 nM in each case. As to `CN[C@@H](C)C(=O)N[C@H]1CN(C(=O)NCCCCCCNC(=O)N2CC[C@H]3CC[C@@H](C(=O)NC4Cc5ccccc5C4)N3C(=O)[C@@H](NC(=O)[C@H](C)NC)C2)CC[C@H]2CCC(C(=O)NC3Cc4ccccc4C3)N2C1=O` (some centres unmarked) [Example 45], the half-inhibitory concentration (IC50) in test [1] (setting [8]) and in test [2] (setting [9]) was less than 1000 nM in each case. With `CN[C@@H](C)C(=O)N[C@H]1CN(C(=O)NCCCCCCNC(=O)N2CC[C@H]3CC[C@@H](C(=O)NCCc4ccccc4)N3C(=O)[C@@H](NC(=O)[C@H](C)NC)C2)CC[C@H]2CCC(C(=O)NCCc3ccccc3)N2C1=O` (some centres unmarked) [Example 46], the IC50 in test [1] (setting [8]) and in test [2] (setting [9]) was less than 1000 nM in each case. With `CN[C@@H](C)C(=O)N[C@H]1CN(C(=O)NCCCCCCNC(=O)N2CC[C@H]3CC[C@@H](C(=O)N[C@H]4CC[C@@H]4c4ccccc4)N3C(=O)[C@@H](NC(=O)[C@H](C)NC)C2)CC[C@H]2CCC(C(=O)N[C@H]3CC[C@@H]3c3ccccc3)N2C1=O` (some centres unmarked) [Example 47], the half-maximal inhibitory concentration (IC50) in test [1] (setting [10]) and in test [2] (setting [11]) was less than 1000 nM throughout. In the case of `CN[C@@H](C)C(=O)N[C@H]1CN(C(=O)NCCCCCCNC(=O)N2CC[C@H]3CC[C@@H](C(=O)N[C@H]4C[C@H](c5ccccc5)C4)N3C(=O)[C@@H](NC(=O)[C@H](C)NC)C2)CC[C@H]2CCC(C(=O)N[C@H]3C[C@H](c4ccccc4)C3)N2C1=O` (some centres unmarked) [Example 48], the IC50 in test [1] (setting [10]) and in test [2] (setting [11]) was less than 10000 nM throughout. With `CN[C@@H](C)C(=O)N[C@H]1CN(C(=O)NCCCCCCNC(=O)N2CC[C@H]3CC[C@@H](C(=O)N[C@H]4C[C@H](c5ccccc5)C4)N3C(=O)[C@@H](NC(=O)[C@H](C)NC)C2)CC[C@H]2CCC(C(=O)N[C@H]3C[C@H](c4ccccc4)C3)N2C1=O` (some centres unmarked) [Example 49], the IC50 in test [3] was less than 1000 nM; in test [4] it was less than 1000 nM; in test [5] (FP competitive assay, Smac-2F probe), less than 5000 nM.

In the case of `CN[C@@H](C)C(=O)N[C@H]1CN(C(=O)NCCCCCCNC(=O)N2CC[C@H]3CC[C@@H](C(=O)N[C@H]4C[C@@H](c5ccccc5)C4)N3C(=O)[C@@H](NC(=O)[C@H](C)NC)C2)CC[C@H]2CCC(C(=O)N[C@H]3C[C@@H](c4ccccc4)C3)N2C1=O` (some centres unmarked) [Example 50], the IC50 in test [3], in test [4] and in test [5] was less than 1000 nM throughout.
